Read-outs that look alike come from different tables or passages of the source.
How the values were obtained:
[1] = tested on: iCell endothelial cells (human iPSC-derived ECs); experiment: Tube formation (tubulogenesis) assay in iCell endothelial cells, 18 h; assay type: cell-based; settings: for endo.tlps.18hr / endo.tta.18hr / endo.ttl.18hr / endo.mtl.18hr: 0.00 µM = 100.00
Method in brief: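 iCell ECs (passages 1–5) seeded 7,500 cells/well on reduced-growth-factor Geltrex in starvation medium, exposed overnight at 37°C to compounds in triplicate concentration–response (0.5% DMSO vehicle). Calcein AM staining, 4× imaging, angiogenesis image analysis; readouts normalized to vehicle, four-parameter logistic fit, POD at 1 SD of vehicle; 100 μM assigned NOAEL if no response.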

[2] = tested on: iCell endothelial cells (human iPSC-derived ECs); experiment: High-content imaging cytotoxicity in iCell endothelial cells, 24 h; assay type: cell-based; settings: for minimal effective concentration / viability at 0.01 µM / activity at 0.01 µM / viability at 0.1 µM / activity at 0.1 µM / viability at 1 µM / activity at 1 µM / viability at 10 µM / activity at 10 µM / viability at 100 µM / activity at 100 µM: Homo sapiens, Endothelial cell; for endo.cyto.24hr / endo.mito.24hr / endo.mitoint.24hr / endo.nma.24hr / endo.tc.24hrs: 0.00 µM = 100.00
Method in brief: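 Human iPSC-derived endothelial cells (passages 1–5) were grown to a fibronectin-coated monolayer, then exposed 24 h at 37 °C with 0.5% DMSO vehicle. Staining was Hoechst 33342, MitoTracker Orange and calcein AM, read by high-content imaging. Point of departure came from 4-parameter logistic fits, with a 1-SD vehicle cutoff and 100 µM as the top concentration.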

SMILES: Clc1ccc(Cl)c(-c2c(Cl)ccc(Cl)c2Cl)c1Cl [(+)-PCB 136, 2,2′,3,3′,6,6′-hexachlorobiphenyl]
- minimal effective concentration ([1]; Homo sapiens, Endothelial cell, endothelial cells (endo), tube formation mtl, 18 hr, read-out: POD endo.mtl.18hr): 63.5 µM
- activity at 0.01 µM ([1]; Homo sapiens, Endothelial cell, iPSC-EC, 0.01 µM, 0.00 µM = 100.00, read-out: endo.mtl.18hr): 115%
- activity at 0.01 µM ([1]; Homo sapiens, Endothelial cell, iPSC-EC, 0.01 µM, 0.00 µM = 100.00, read-out: endo.tta.18hr): 133%
- activity at 0.01 µM ([1]; Homo sapiens, Endothelial cell, iPSC-EC, 0.01 µM, 0.00 µM = 100.00, read-out: endo.ttl.18hr): 135%
- activity at 0.1 µM ([1]; Homo sapiens, Endothelial cell, iPSC-EC, 0.10 µM, 0.00 µM = 100.00, read-out: endo.mtl.18hr): 113%
- activity at 0.1 µM ([1]; Homo sapiens, Endothelial cell, iPSC-EC, 0.10 µM, 0.00 µM = 100.00, read-out: endo.ttl.18hr): 132%
- activity at 1 µM ([1]; Homo sapiens, Endothelial cell, iPSC-EC, 1.00 µM, 0.00 µM = 100.00, read-out: endo.mtl.18hr): 111%
- activity at 1 µM ([1]; Homo sapiens, Endothelial cell, iPSC-EC, 1.00 µM, 0.00 µM = 100.00, read-out: endo.tta.18hr): 134%
- activity at 1 µM ([1]; Homo sapiens, Endothelial cell, iPSC-EC, 1.00 µM, 0.00 µM = 100.00, read-out: endo.ttl.18hr): 139%
- activity at 10 µM ([1]; Homo sapiens, Endothelial cell, iPSC-EC, 10.00 µM, 0.00 µM = 100.00, read-out: endo.mtl.18hr): 107%
- minimal effective concentration ([1]; Homo sapiens, Endothelial cell, iPSC-EC, 100.00 = highest concentration tested, read-out: endo.mtl.18hr POD): 63.5 µM
- endo.tlps.18hr ([1]; iPSC-EC, 0.01 µM): 101.49
- endo.tlps.18hr ([1]; iPSC-EC, 0.10 µM): 128.16
- endo.tta.18hr ([1]; iPSC-EC, 0.10 µM): 137.60
- endo.tlps.18hr ([1]; iPSC-EC, 1.00 µM): 103.43
- endo.tlps.18hr ([1]; iPSC-EC, 10.00 µM): 157.84
- endo.tta.18hr ([1]; iPSC-EC, 10.00 µM): 197.38
- endo.ttl.18hr ([1]; iPSC-EC, 10.00 µM): 177.54
- endo.mtl.18hr ([1]; iPSC-EC, 100.00 µM): 68.39
- endo.tlps.18hr ([1]; iPSC-EC, 100.00 µM): 43.04
- endo.tta.18hr ([1]; iPSC-EC, 100.00 µM): 78.91
- endo.ttl.18hr ([1]; iPSC-EC, 100.00 µM): 80.17
- minimal effective concentration ([2]; endothelial cells (endo), nma, 24 hr, read-out: POD endo.nma.24hr): 100 µM
- viability at 0.01 µM ([2]; iPSC-EC, 0.01 µM, 0.00 µM = 100.00, read-out: endo.cyto.24hr): 103%
- activity at 0.01 µM ([2]; iPSC-EC, 0.01 µM, 0.00 µM = 100.00, read-out: endo.mito.24hr): 103%
- activity at 0.01 µM ([2]; iPSC-EC, 0.01 µM, 0.00 µM = 100.00, read-out: endo.mitoint.24hr): 96.4%
- activity at 0.01 µM ([2]; iPSC-EC, 0.01 µM, 0.00 µM = 100.00, read-out: endo.nma.24hr): 102%
- viability at 0.01 µM ([2]; iPSC-EC, 0.01 µM, 0.00 µM = 100.00, read-out: endo.tc.24hrs): 103%
- viability at 0.1 µM ([2]; iPSC-EC, 0.10 µM, 0.00 µM = 100.00, read-out: endo.cyto.24hr): 103%
- activity at 0.1 µM ([2]; iPSC-EC, 0.10 µM, 0.00 µM = 100.00, read-out: endo.mito.24hr): 104%
- activity at 0.1 µM ([2]; iPSC-EC, 0.10 µM, 0.00 µM = 100.00, read-out: endo.mitoint.24hr): 95.5%
- activity at 0.1 µM ([2]; iPSC-EC, 0.10 µM, 0.00 µM = 100.00, read-out: endo.nma.24hr): 98.7%
- viability at 0.1 µM ([2]; iPSC-EC, 0.10 µM, 0.00 µM = 100.00, read-out: endo.tc.24hrs): 103%
- viability at 1 µM ([2]; iPSC-EC, 1.00 µM, 0.00 µM = 100.00, read-out: endo.cyto.24hr): 103%
- activity at 1 µM ([2]; iPSC-EC, 1.00 µM, 0.00 µM = 100.00, read-out: endo.mito.24hr): 103%
- activity at 1 µM ([2]; iPSC-EC, 1.00 µM, 0.00 µM = 100.00, read-out: endo.mitoint.24hr): 92.5%
- activity at 1 µM ([2]; iPSC-EC, 1.00 µM, 0.00 µM = 100.00, read-out: endo.nma.24hr): 98.5%
- viability at 1 µM ([2]; iPSC-EC, 1.00 µM, 0.00 µM = 100.00, read-out: endo.tc.24hrs): 103%
- viability at 10 µM ([2]; iPSC-EC, 10.00 µM, 0.00 µM = 100.00, read-out: endo.cyto.24hr): 101%
- activity at 10 µM ([2]; iPSC-EC, 10.00 µM, 0.00 µM = 100.00, read-out: endo.mito.24hr): 102%
- activity at 10 µM ([2]; iPSC-EC, 10.00 µM, 0.00 µM = 100.00, read-out: endo.mitoint.24hr): 92.2%
- activity at 10 µM ([2]; iPSC-EC, 10.00 µM, 0.00 µM = 100.00, read-out: endo.nma.24hr): 99.4%
- viability at 10 µM ([2]; iPSC-EC, 10.00 µM, 0.00 µM = 100.00, read-out: endo.tc.24hrs): 101%
- viability at 100 µM ([2]; iPSC-EC, 100.00 µM, 0.00 µM = 100.00, read-out: endo.cyto.24hr): 46.7%
- activity at 100 µM ([2]; iPSC-EC, 100.00 µM, 0.00 µM = 100.00, read-out: endo.mito.24hr): 41.6%
- activity at 100 µM ([2]; iPSC-EC, 100.00 µM, 0.00 µM = 100.00, read-out: endo.mitoint.24hr): 51.5%
- activity at 100 µM ([2]; iPSC-EC, 100.00 µM, 0.00 µM = 100.00, read-out: endo.nma.24hr): 104%
- viability at 100 µM ([2]; iPSC-EC, 100.00 µM, 0.00 µM = 100.00, read-out: endo.tc.24hrs): 50.8%
- minimal effective concentration ([2]; iPSC-EC, 100.00 = highest concentration tested, read-out: endo.nma.24hr POD): 100 µM

SMILES: Clc1ccc(Cl)c(-c2c(Cl)ccc(Cl)c2Cl)c1Cl [(-)-PCB 136, 2,2′,3,3′,6,6′-hexachlorobiphenyl]
- endo.mtl.18hr ([1]; iPSC-EC, 0.01 µM): 102.71
- endo.tlps.18hr ([1]; iPSC-EC, 0.01 µM): 139.80
- endo.tta.18hr ([1]; iPSC-EC, 0.01 µM): 138.00
- endo.ttl.18hr ([1]; iPSC-EC, 0.01 µM): 138.93
- endo.mtl.18hr ([1]; iPSC-EC, 0.10 µM): 112.13
- endo.tlps.18hr ([1]; iPSC-EC, 0.10 µM): 103.80
- endo.tta.18hr ([1]; iPSC-EC, 0.10 µM): 103.27
- endo.ttl.18hr ([1]; iPSC-EC, 0.10 µM): 116.27
- endo.mtl.18hr ([1]; iPSC-EC, 1.00 µM): 102.66
- endo.tlps.18hr ([1]; iPSC-EC, 1.00 µM): 134.14
- endo.tta.18hr ([1]; iPSC-EC, 1.00 µM): 146.36
- endo.ttl.18hr ([1]; iPSC-EC, 1.00 µM): 142.63
- endo.mtl.18hr ([1]; iPSC-EC, 10.00 µM): 114.95
- endo.tlps.18hr ([1]; iPSC-EC, 10.00 µM): 133.39
- endo.tta.18hr ([1]; iPSC-EC, 10.00 µM): 144.91
- endo.ttl.18hr ([1]; iPSC-EC, 10.00 µM): 148.25
- endo.mtl.18hr ([1]; iPSC-EC, 100.00 µM): 40.89
- endo.tlps.18hr ([1]; iPSC-EC, 100.00 µM): 14.11
- endo.tta.18hr ([1]; iPSC-EC, 100.00 µM): 1.36
- endo.ttl.18hr ([1]; iPSC-EC, 100.00 µM): 1.73
- endo.cyto.24hr ([2]; iPSC-EC, 0.01 µM): 97.58
- endo.mito.24hr ([2]; iPSC-EC, 0.01 µM): 98.40
- endo.mitoint.24hr ([2]; iPSC-EC, 0.01 µM): 92.73
- endo.nma.24hr ([2]; iPSC-EC, 0.01 µM): 101.21
- endo.tc.24hrs ([2]; iPSC-EC, 0.01 µM): 97.58
- endo.cyto.24hr ([2]; iPSC-EC, 0.10 µM): 98.68
- endo.mito.24hr ([2]; iPSC-EC, 0.10 µM): 99.17
- endo.mitoint.24hr ([2]; iPSC-EC, 0.10 µM): 90.73
- endo.nma.24hr ([2]; iPSC-EC, 0.10 µM): 99.07
- endo.tc.24hrs ([2]; iPSC-EC, 0.10 µM): 98.68
- endo.cyto.24hr ([2]; iPSC-EC, 1.00 µM): 92.98
- endo.mito.24hr ([2]; iPSC-EC, 1.00 µM): 93.57
- endo.mitoint.24hr ([2]; iPSC-EC, 1.00 µM): 89.65
- endo.nma.24hr ([2]; iPSC-EC, 1.00 µM): 102.49
- endo.tc.24hrs ([2]; iPSC-EC, 1.00 µM): 92.98
- endo.cyto.24hr ([2]; iPSC-EC, 10.00 µM): 96.25
- endo.mito.24hr ([2]; iPSC-EC, 10.00 µM): 96.58
- endo.mitoint.24hr ([2]; iPSC-EC, 10.00 µM): 86.88
- endo.nma.24hr ([2]; iPSC-EC, 10.00 µM): 101.21
- endo.tc.24hrs ([2]; iPSC-EC, 10.00 µM): 96.25
- endo.cyto.24hr ([2]; iPSC-EC, 100.00 µM): 49.24
- endo.mito.24hr ([2]; iPSC-EC, 100.00 µM): 43.24
- endo.mitoint.24hr ([2]; iPSC-EC, 100.00 µM): 53.93
- endo.nma.24hr ([2]; iPSC-EC, 100.00 µM): 111.21
- endo.tc.24hrs ([2]; iPSC-EC, 100.00 µM): 54.61
